Assays:
[1] = system: spinal cord injury model; assay: Spinal Cord Injury Model; conditions: in vivo
Method: Compound I-37 was tested in a spinal cord injury model similar to the one described in Dill, et al, (2008) “Inactivation of Glycogen Synthase Kinase 3 Promotes Axonal Growth and Recover in CNS” The Journal of Neuroscience, 28(36): 8914-8928.

[2] = system: E16 rat hippocampal or cortical neurons; assay: Axonal Branching Assay; assay type: cell-based
Method: Compounds are tested for the ability to enhance axonal branching in E16 rat hippocampal or cortical neurons.
1 mg/ml stock of PDL is diluted into 100 μg/ml in DI water. The glass coverslips are coated for at least 1 hour at 37° C. prior to doing the dissection. PDL is aspirated and the plates are rinsed with PBS and air-dried in hood.
Cortical or hippocampal lobes are combined with 9 mL of Base media (Neurobasal+Pen/Strep) and put on ice. 1 mL of 10× trypsin solution is added and the mixture is swirled gently. The tissue is then digested via incubation in a 37° C. waterbath for 20 minutes. After 20 minutes, 10 μl/ml DNase (100 μL DNase) is added and the mixture is incubated for another 5 minutes.
The cells are spun at 1000 rpm for 1 minute. The enzyme solution is then removed without removing any of the brain fragments sitting on the bottom. […] The cells are counted in a hemacytometer and seeded at 5000-10000 cells/well in a 24 well plate with glass coverslip inserts coated with PDL. […]
Images are captured at 10× and 20× on an upright microscope and axonal branching is determined by quantification of area under threshold fluorescence of neurofilament Alexa 488 per cell. Dendritic branching is determined by quantification of area under threshold fluorescence of MAP2 Alexa 568 per cell. Alternatively, branching can be determined by manual counting of branch points per cell. […]

[3] = system: GSK-3α/β pTYR; assay: pTYR biomarker analysis in brain, Post Stroke Model II; assay type: in vivo, rat; conditions: all doses, termination of study
Method: To track the activity of Compound I-37 in the CNS of rats subjected to MCAO, brains were removed and protein lysate was obtained (as described herein) from both vehicle treated and compound treated animals at the termination of the study. Lysates were analyzed by Western blot and probed for GSK-3α/β pTYR levels.
Protein lysate is obtained from the brains of all vehicle and compound-treated animals and is processed for biomarker analysis of GSK3α/β pTYR and β-catenin by Western blot assay to ensure compound activity on the target.

Cc1nc(-c2ccccc2Cl)nc(Nc2n[nH]c3ncc(F)cc23)c1C [Compound I-37, N-(2-(2-chlorophenyl)-5,6-dimethylpyrhnidin-4-yl)-5-fluoro-1H-pyrazolo[3,4-b]pyridin-3-amine]
functional recovery [1]: did not appear to improve functional recovery | axonal and dendritic branching ([2]; 10 nM, 7 days): increased axonal and dentritic branching | axon growth ([2]; concentrations shown to induce β-catenin): axon growth was inhibited | pTYR signal compared to vehicle treated rats [3]: significant reduction
